In patent publication US20250051479A1, “CYTOTOXICITY TARGETING CHIMERAS FOR CXCR3-EXPRESSING CELLS” (GLAXOSMITHKLINE INTELLECTUAL PROPERTY DEVELOPMENT LIMITED, priority 2022, published 2025):

Tested on: CHOK1 cells engineered to overexpress CXCR3
Assay: Antibody dependent cellular cytotoxicity (ADCC) reporter assay
Format: cell-based
Conditions: with anti-cotinine antibody (human IgG1 Fc, S239D/I332E), Jurkat FcγRIIIa NFAT-luciferase reporter cells, incubated about 12-18 hours, average of two experimental runs, EC50 in molar (M)
Method: An antibody dependent cellular cytotoxicity (ADCC) reporter assay was conducted using the following four assay components: (i) ARM compound of Formula (I) targeting CXCR3 (concentrations ranging from 1 pM to 10 μM); (ii) anti-cotinine antibody having a heavy chain sequence of SEQ ID NO: 11 and a light chain sequence of SEQ ID NO: 12 (rabbit variable region with human IgG1 Fc domain containing DE mutation (S239D/I332E)) (concentrations ranging from 0.01 μg/mL-200 μg/mL); (iii) Target cells: CHOK1 cells engineered to overexpress CXCR3 (typically 1000-20,000 cells per well); and (iv) Reporter cells—Jurkat cells engineered to express FcγRIIIa with a reporter gene luciferase under the control of the NFAT promoter (typically 3000-75,000 cells per well). Reagents were combined in final volume of 20 μL in 384-well tissue culture treated plate. […]
Luminescence signal was measured on a microplate reader capable of measuring luminescence and signal:background was calculated by dividing the signal of a test well by the signal obtained when no compound of formula (I) was included in the assay. […]
ARMs compounds of Formula (I) were tested for ADCC activity in the above assay in two experimental runs and the results are shown in Table 3 below. […] The pEC50 value is the negative log of the EC50 value, wherein the EC50 value is half maximal effective concentration measured in molar (M). […]

SMILES: CCOc1ccc(-n2c([C@@H](C)N(CC3CCN(C(=O)C4CCC(NC(=O)CCCOC5CCC(OCCNC(=O)[C@H]6CC(=O)N(C)[C@@H]6c6cccnc6)CC5)CC4)CC3)C(=O)Cc3ccc(F)c(C(F)(F)F)c3)nc3ncccc3c2=O)cc1 (stereo partly drawn) [Example 1, (2S,3S)—N-(2-(((1R,4S)-4-(4-(((1R,4R)-4-(4-((N-((R)-1-(3-(4-ethoxyphenyl)-4-oxo-3,4-dihydropyrido[2,3-d]pyrimidin-2-yl)ethyl)-2-(4-fluoro-3-(trifluoromethyl)phenyl)acetamido)methyl)piperidine-1-carbonyl)cyclohexyl)amino)-4-oxobutoxy)cyclohexyl)oxy)ethyl)-1-methyl-5-oxo-2-(pyridin-3-yl)pyrrolidine-3-carboxamide]
- ADCC Reporter Assay pEC50: 7.7

SMILES: CCOc1ccc(-n2c([C@@H](C)N(CC3CCN(C(=O)[C@H]4CC[C@H](NC(=O)CCCO[C@H]5CC[C@H](OCCNC(=O)[C@H]6CC(=O)N(C)[C@@H]6c6cccnc6)CC5)CC4)CC3)C(=O)Cc3ccc(F)c(C(F)(F)F)c3)nc3ncccc3c2=O)cc1 (racemic) [Example 2, (2S,3S)-N-(2-(((1R,4S)-4-(4-(((1S,4S)-4-(4-((N-((R)-1-(3-(4-ethoxyphenyl)-4-oxo-3,4-dihydropyrido[2,3-d]pyrimidin-2-yl)ethyl)-2-(4-fluoro-3-(trifluoromethyl)phenyl)acetamido)methyl)piperidine-1-carbonyl)cyclohexyl)amino)-4-oxobutoxy)cyclohexyl)oxy)ethyl)-1-methyl-5-oxo-2-(pyridin-3-yl)pyrrolidine-3-carboxamide]
- EC50 (Cricetulus griseus, read-out: ADCC Reporter Assay pEC50 (converted)): 3.98e-09 M
